Assay results published in patent US9248117B2, “Substituted N,N-dihaloamines as antimicrobials” (priority 2010, dated 2016).
In brackets after ≈: the same amount, converted by molar mass.

Tests used:
E. coli 25922 = assay: MBC/MFC against E. coli 25922; format: cell-based; conditions: Escherichia coli, Table 4
S. aureus 29213 = assay: MBC/MFC against S. aureus 29213; format: cell-based; conditions: Staphylococcus aureus, Table 4
C. albicans 10231 = assay: MBC/MFC against C. albicans 10231; format: cell-based; conditions: Candida albicans, Table 4
L929 cells = assay: CT50 cytotoxicity in L929 cells; conditions: pH 7 phosphate; Table 4

| SMILES | MBC (E. coli 25922; pH 4 acetate) [µg/mL] | MBC (E. coli 25922; pH 7 phosphate) [µg/mL] | MBC (S. aureus 29213; pH 4 acetate) [µg/mL] | MBC (S. aureus 29213; pH 7 phosphate) [µg/mL] | MFC (C. albicans 10231; pH 4 acetate) [µg/mL] | MFC (C. albicans 10231; pH 7 phosphate) [µg/mL] | CT50 L929 cells (L929 cells) [mM] |
| --- | --- | --- | --- | --- | --- | --- | --- |
| CC1(C)CN(CCO)C(=O)C(C)(C)N1Cl [Compound 39-108, 4-chloro-1-(2-hydroxyethyl)-3,3,5,5-tetramethylpiperazin-2-one] | 1 (≈ 4.26 µM) | 32 (≈ 136 µM) | 2 (≈ 8.52 µM) | 128 (≈ 545 µM) | 8 (≈ 34.1 µM) | 64 (≈ 273 µM) | 0.1 |
| COCCOCCOCC[N+](C)(C)CCN1CC(C)(C)N(Cl)C1=O [Compound 39-110, 2-(3-chloro-4,4-dimethyl-2-oxoimidazolidin-1-yl)-N-(2-(2-(2-methoxyethoxy)ethoxy)ethyl)-N,N-dimethylethanaminium 4-methylbenzenesulfonate] | 128 | 1020 | 128 | 2050 | 256 | > 2050 | 3.9 |
| COCCOCCN1C(=O)C(C)(C)N(Cl)C1(C)C [Compound 39-112, 1-chloro-3-(2-(2-methoxyethoxy)ethyl)-2,2,5,5-tetramethylimidazolidin-4-one] | 4 (≈ 14.3 µM) | 128 (≈ 459 µM) | 8 (≈ 28.7 µM) | 128 (≈ 459 µM) | 8 (≈ 28.7 µM) | 1020 (≈ 3670 µM) | 0.16 |
| COCCOCCOCCCN1C(=O)C(C)(C)N(Cl)C1(C)C [Compound 39-114, 1-chloro-3-(3-(2-(2-methoxyethoxy)ethoxy)propyl)-2,2,5,5-tetramethylimidazolidin-4-one] | 8 (≈ 23.7 µM) | 256 (≈ 760 µM) | 4 (≈ 11.9 µM) | 256 (≈ 760 µM) | 8 (≈ 23.7 µM) | > 1020 | 0.24 |
| COCCOCCOCCOCCOCCOCCOCCOCCOCCOCCOCCOCCOCCOCCN1C(=O)C(C)(C)N(Cl)C1(C)C [Compound 39-116, 1-chloro-2,2,5,5-tetramethyl-3-(2,5,8,11,14,17,20,23,26,29,32,35,38,41-tetradecaoxatritetracontan-43-yl)imidazolidin-4-one] | 16 (≈ 19.8 µM) | 512 (≈ 634 µM) | 16 (≈ 19.8 µM) | 1020 (≈ 1270 µM) | 128 (≈ 159 µM) | > 2050 | 4.1 |
| COCCOCCOCCOCCOCCOCCOCCOCCOCCOCCOCCOCCOCCOCCOCCOCCOCCOCCOCCOCCOCCOCCOCCOCCOCCOCCOCCOCCOCCOCCOCCOCCOCCOCCOCCOCCOCCOCCOCCN1C(=O)C(C)(C)N(Cl)C1(C)C [Compound 39-118, 1-chloro-2,2,5,5-tetramethyl-3-(2,5,8,11,14,17,20,23,26,29,32,35,38,41,44, 47,50,53,56,59,62,65,68,71,74,77,80,83,86,89, 92,95,98,101,104,107,110,113,116-nonatriacontaoxaoctadecahectan-118-yl)imidazolidin-4-one] | 32 (≈ 16.8 µM) | 2050 (≈ 1070 µM) | 8 (≈ 4.19 µM) | 4100 (≈ 2150 µM) | 256 (≈ 134 µM) | > 2050 | 11.3 |
| CC1(C)C(CO)OC(=O)N1Cl (stereo not drawn) [Compound 39-122, 3-chloro-5-(hydroxymethyl)-4,4-dimethyloxazolidin-2-one] | 2 (≈ 11.1 µM) | 2 (≈ 11.1 µM) | 4 (≈ 22.3 µM) | 4 (≈ 22.3 µM) | > 512 | 1020 (≈ 5700 µM) | 0.14 |
| CN1CC(C)(CO)N(Cl)C1=O (stereo not drawn) [Compound 39-124, 3-chloro-4-(hydroxymethyl)-1,4-dimethylimidazolidin-2-one] | 16 (≈ 89.6 µM) | 8 (≈ 44.8 µM) | 16 (≈ 89.6 µM) | 32 (≈ 179 µM) | 8 (≈ 44.8 µM) | > 1020 | 0.33 |
| CC1(C)C(=O)N(CCCCO)C(C)(C)N1Cl [Compound 39-125, 1-chloro-3-(4-hydroxybutyl)-2,2,5,5-tetramethylimidazolidin-4-one] | 2 (≈ 8.04 µM) | 32 (≈ 129 µM) | 2 (≈ 8.04 µM) | 256 (≈ 1030 µM) | 128 (≈ 515 µM) | > 1020 | 2.21 |
